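Briefly, cells in 96-well plates were exposed to five compound concentrations for 48 h, and endpoints were estimated by linear interpolation. GI50: concentration for 50% inhibition of growth. TGI: concentration producing complete growth inhibition.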
What was measured:
Test in all cases: NCI tumour cell line growth inhibition, 48 h
786-0 renal = tested on: 786-0 renal
A549 NSCLC = tested on: A549 NSCLC
ACHN renal = tested on: ACHN renal
CAKI-1 renal = tested on: CAKI-1 renal
CCRF-CEM leukemia = tested on: CCRF-CEM leukemia
COLO 205 colon = tested on: COLO 205 colon
DLD-1 colon = tested on: DLD-1 colon
DMS 114 small cell lung = tested on: DMS 114 small cell lung
EKVX NSCLC = tested on: EKVX NSCLC
HCC-2998 colon = tested on: HCC-2998 colon
HCT-116 colon = tested on: HCT-116 colon
HCT-15 colon = tested on: HCT-15 colon
HL-60(TB) leukemia = tested on: HL-60(TB) leukemia
HOP-18 NSCLC = tested on: HOP-18 NSCLC
HOP-62 NSCLC = tested on: HOP-62 NSCLC
HOP-92 NSCLC = tested on: HOP-92 NSCLC
HT29 colon = tested on: HT29 colon
IGROV1 ovarian = tested on: IGROV1 ovarian
K-562 leukemia = tested on: K-562 leukemia
KM12 colon = tested on: KM12 colon
KM20L2 colon = tested on: KM20L2 colon
LOX IMVI melanoma = tested on: LOX IMVI melanoma
LXFL 529 NSCLC = tested on: LXFL 529 NSCLC
M14 melanoma = tested on: M14 melanoma
M19-MEL melanoma = tested on: M19-MEL melanoma
MALME-3M melanoma = tested on: MALME-3M melanoma
MOLT-4 leukemia = tested on: MOLT-4 leukemia

Q: Which results are given for `C[N-]c1nnnn1C.[Au+].c1ccc([PH+](c2ccccc2)c2ccccc2)cc1`?
A: GI50 (786-0 renal): 1.74 µM; TGI (786-0 renal): 3.12 µM; GI50 (A549 NSCLC): 14.7 µM; TGI (A549 NSCLC): 68.7 µM; GI50 (ACHN renal): 4.26 µM; TGI (ACHN renal): 8.38 µM; GI50 (CAKI-1 renal): 2.39 µM; TGI (CAKI-1 renal): 5 µM; GI50 (CCRF-CEM leukemia): 0.556 µM; TGI (CCRF-CEM leukemia): 3.44 µM; GI50 (COLO 205 colon): 3.33 µM; TGI (COLO 205 colon): 8.81 µM; GI50 (DLD-1 colon): 2.05 µM; TGI (DLD-1 colon): 5.02 µM; GI50 (DMS 114 small cell lung): 2.57 µM; TGI (DMS 114 small cell lung): > 100 µM; GI50 (EKVX NSCLC): 4.32 µM; TGI (EKVX NSCLC): 8.99 µM; GI50 (HCC-2998 colon): 4.06 µM; TGI (HCC-2998 colon): 9.23 µM; GI50 (HCT-116 colon): 11.7 µM; TGI (HCT-116 colon): 23.9 µM; GI50 (HCT-15 colon): 2.17 µM; TGI (HCT-15 colon): 5.72 µM; GI50 (HL-60(TB) leukemia): 0.189 µM; TGI (HL-60(TB) leukemia): 0.567 µM; GI50 (HOP-18 NSCLC): 2.35 µM; TGI (HOP-18 NSCLC): 5.96 µM; GI50 (HOP-62 NSCLC): 7.89 µM; TGI (HOP-62 NSCLC): 16.8 µM; GI50 (HOP-92 NSCLC): 2.67 µM; TGI (HOP-92 NSCLC): 5.42 µM; GI50 (HT29 colon): 2 µM; TGI (HT29 colon): 4.53 µM; GI50 (IGROV1 ovarian): 2.76 µM; TGI (IGROV1 ovarian): 9.99 µM; GI50 (K-562 leukemia): 0.518 µM; TGI (K-562 leukemia): 2.88 µM; GI50 (KM12 colon): 7.09 µM; TGI (KM12 colon): 28.6 µM; GI50 (KM20L2 colon): 4.05 µM; TGI (KM20L2 colon): 10.3 µM; GI50 (LOX IMVI melanoma): 2.12 µM; TGI (LOX IMVI melanoma): 5.77 µM; GI50 (LXFL 529 NSCLC): 1.37 µM; TGI (LXFL 529 NSCLC): 2.83 µM; GI50 (M14 melanoma): 2.34 µM; TGI (M14 melanoma): 5.51 µM; GI50 (M19-MEL melanoma): 2.9 µM; TGI (M19-MEL melanoma): 14.9 µM; GI50 (MALME-3M melanoma): 1.42 µM; TGI (MALME-3M melanoma): 2.91 µM; GI50 (MOLT-4 leukemia): 1.62 µM

Reference: PubChem BioAssay (NCI)
